This assay has as its target MMP-9 (Homo sapiens, UniProt P14780). In words: MMP-9 inhibition assay (internally quenched fluorescent peptide substrate). Format: biochemical. The note with it: purified MMP-9 enzyme, incubation at 37 C. On the procedure: Each of the compounds of Examples 5-12 were assayed for their efficacy as MMP-9 inhibitors. The assay for MMP-9 inhibitors was performed by mixing purified MMP-9 enzyme with assay buffer, substrate, and compound to be tested. The substrate is an internally quenched fluorescent peptide that becomes unquenched upon cleavage by MMP-9 enzyme. After incubation at 37 C., the assay is stopped by addition of EDTA solution and the fluorescence is measured. The fluorescence is directly proportional to enzyme activity. A compound that is an inhibitor of MMP-9 activity will reduce the resultant fluorescent values.

Chain of MMP-9 (P14780 94-707, species assumed): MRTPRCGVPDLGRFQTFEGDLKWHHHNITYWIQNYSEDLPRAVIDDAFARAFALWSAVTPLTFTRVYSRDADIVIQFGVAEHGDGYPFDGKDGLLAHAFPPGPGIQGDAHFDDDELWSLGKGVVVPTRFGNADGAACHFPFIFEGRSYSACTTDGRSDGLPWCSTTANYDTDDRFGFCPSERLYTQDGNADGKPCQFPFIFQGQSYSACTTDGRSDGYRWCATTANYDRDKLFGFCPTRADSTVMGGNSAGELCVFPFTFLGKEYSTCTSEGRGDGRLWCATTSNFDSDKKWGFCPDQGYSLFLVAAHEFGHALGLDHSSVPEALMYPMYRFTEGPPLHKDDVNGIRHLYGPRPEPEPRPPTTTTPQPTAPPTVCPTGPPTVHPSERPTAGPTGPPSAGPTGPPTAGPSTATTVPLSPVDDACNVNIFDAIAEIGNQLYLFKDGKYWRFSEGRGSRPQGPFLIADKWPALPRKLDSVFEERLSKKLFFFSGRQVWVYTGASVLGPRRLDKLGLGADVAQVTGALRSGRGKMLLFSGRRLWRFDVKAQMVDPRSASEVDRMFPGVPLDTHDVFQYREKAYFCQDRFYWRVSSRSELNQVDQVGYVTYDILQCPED

In turn, `COc1ccc(S(=O)(=O)N(CCc2cccc(Cl)c2)CC(=O)N2C(CC(=O)NO)CN(Cc3ccc(F)cc3)C(=O)[C@@H]2C)cc1` (single isomer, unassigned) [3A (isomer A)] showed an IC50 of 50 nM.

Consider `COc1ccc(S(=O)(=O)N(CCc2cccc(Cl)c2)CC(=O)N2C(CC(=O)NO)CN(Cc3ccc(F)cc3)C(=O)[C@@H]2C)cc1` (single isomer, unassigned) [3B (isomer B)], for which the concentration for half-maximal inhibition (IC50) was determined as 53 nM.

Regarding `COc1ccc(S(=O)(=O)N(CCc2cccc(Cl)c2)CC(=O)N2CC(=O)N(Cc3ccc(F)cc3)CC2CC(=O)NO)cc1` (stereo not drawn) [Example 4, 2-{1-[N-(3-Chlorophenethyl)-N-(4-methoxybenzenesufonyl)-aminoacetyl]-4-(4-fluorobenzyl)-5-oxo-piperazin-2-yl}-N-hydroxy-acetamide], the inhibition at 1 µM amounted to 52%.

On to `COc1ccc(CCN(CC(=O)N2CC(=O)N(Cc3ccc(F)cc3)CC2CC(=O)NO)S(=O)(=O)c2ccc(OC)cc2)cc1` (stereo not drawn) [Example 5, 2-{4-(4-fluorobenzyl)-1-[N-(4-methoxybenzenesufonyl)-N-(4-methoxyphenethyl)-aminoacetyl]-5-oxo-piperazin-2-yl}-N-hydroxy-acetamide], for which the inhibition at 1 µM came to 42%.

Molecule `COc1ccc(CCN(CC(=O)N2C(CC(=O)NO)CN(Cc3ccc(F)cc3)C(=O)[C@@H]2C)S(=O)(=O)c2ccc(OC)cc2)cc1` (stereo partly drawn) [Example 6, 2-{4-(4-Fluorobenzyl)-1-[N-(4-methoxybenzenesufonyl)-N-(4-methoxyphenethyl)-aminoacetyl]-6-(S)-methyl-5-oxo-piperazin-2-yl}-N-hydroxy-acetamide] registered an IC50 of 100 nM.

In turn, `COc1ccc(S(=O)(=O)N(CCc2cccc(Cl)c2)CC(=O)N2CC(=O)N(Cc3cc(OC)cc(OC)c3)CC2CC(=O)NO)cc1` (stereo not drawn) [Example 7, 2-{1-[N-(3-Chlorophenethyl)-N-(4-methoxybenzenesufonyl)-aminoacetyl]-4-(3,5-dimethoxybenzyl)-5-oxo-piperazin-2-yl}-N-hydroxy-acetamide] returned an inhibition at 1 µM of 62%.

`COc1ccc(CCN(CC(=O)N2CC(=O)N(Cc3cc(OC)cc(OC)c3)CC2CC(=O)NO)S(=O)(=O)c2ccc(OC)cc2)cc1` (stereo not drawn) [Example 8, 2-{4-(3,5-Dimethoxybenzyl)-1-[N-(4-methoxybenzenesufonyl)-N-(4-methoxyphenethyl)-aminoacetyl]-5-oxo-piperazin-2-yl}-N-hydroxy-acetamide] returned an inhibition at 1 µM of 35%.

With `COc1ccc(S(=O)(=O)N(CCc2cccc(Cl)c2)CC(=O)N2C(CC(=O)NO)CN(Cc3cc(OC)cc(OC)c3)C(=O)[C@@H]2C)cc1` (stereo partly drawn) [Example 9, 2-{1-[N-(3-Chlorophenethyl)-N-(4-methoxybenzenesufonyl)-aminoacetyl]4-(3,5-dimethoxybenzyl)-6-(S)-methyl-5-oxo-piperazin-2-yl}-N-hydroxy-acetamide], it took 120 nM to reach half-maximal inhibition (IC50).

In the case of `COc1ccc(CCN(CC(=O)N2C(CC(=O)NO)CN(Cc3cc(OC)cc(OC)c3)C(=O)[C@@H]2C)S(=O)(=O)c2ccc(OC)cc2)cc1` (stereo partly drawn) [Example 10, 2-{4-(3,5-dimethoxybenzyl)-1-[N-(4-methoxybenzenesufonyl)-N-(4-methoxyphenethyl)-aminoacetyl]-6-(S)-methyl-5-oxo-piperazin-2-yl}-N-hydroxy-acetamide], the IC50 worked out at 150 nM.

(Values after US6294539A, “Heterocyclic hydroxamic acid derivatives as MMP inhibitors” (Advanced Syntech, LLC, priority 2000, dated 2001).)
